Source: patent US7169972B2, “Methods and compositions to modulate ethylene sensitivity” (The Salk Institute for Biological Studies, priority 2001, dated 2007)

Tested on: Arabidopsis etiolated seedlings
Assay: Ethylene response of etiolated seedlings grown on AT plates versus AT plus ACC (root length inhibition)
Assay type: in vivo, Arabidopsis thaliana
Conditions: 10 uM ACC, 5 days
Protocol: (§1) Phenotypes of 5-day-old etiolated seedlings grown on AT plates in the absence or presence of 10 uM ACC. Data are presented in tabular (A) and graph (B) forms. Ethylene response of 5-day-old etiolated seedlings of WS, Col and two independent quadruple mutant isolates was quantified. Root and hypocotyl lengths of seedlings grown on AT plates versus AT plus 10 uM ACC were measured. Each data point represents the average organ length of 50 or more seedlings plus/minus standard deviation. Fold inhibition was calculated as the ratio of the average organ length in air to that in ACC.
To overcome the redundancy problem, crosses were performed between the mutants in different EDF genes to construct double, triple and quadruple mutant combinations. Mutant genotypes were assayed by PCR. […] Importantly, the observed ethylene insensitivity was more dramatic in the quadruple mutant combinations that involved the strong edf1-1 allele (i.e. edf1-1 edf2-1 edf3-1 edf4-1 and edf1-1 edf2-2 edf3-1 edf4-1), compared to those that included the edf1-2 allele (edf1-2 edf2-1 edf3-1 edf4-1 and edf1-2 edf2-2 edf3-1 edf4-1). The weaker phenotype of the latter quadruple mutant combinations is consistent with the leaky expression of EDF1 in the edf1-2 mutant.
as §1, with “were measured. […] Fold inhibition” for “were measured. Each data point represents the average organ length of 50 or more seedlings plus/minus standard deviation. Fold inhibition”, “in ACC. Similar, yet less dramatic, differences were detected when the hypocotyls of the quadruple and wild-type seedlings were measured.” for “in ACC.”
Arabidopsis thaliana accession Columbia-0 was used for all overexpression studies. […] After 3–4 days in the light at 4 degrees C., the plates were wrapped in foil and kept in a 24 C incubator, after which the phenotypes of seedlings were analyzed. […]

NC1(C(=O)O)CC1 [ACC, 1-aminocyclopropane-1-carboxylic acid]
root length inhibition (fold; ratio of average organ length in air to that in ACC) (Columbia wild-type seedlings): 9.5 fold | root length inhibition (fold; ratio of average organ length in air to that in ACC) (WS wild-type seedlings): 12 fold | root length inhibition (fold; ratio of average organ length in air to that in ACC) (quadruple mutant edf1-1 edf2-1 edf3-1 edf4-1 seedlings): less than 7 fold
